Results as given in the supplement of paper PMC10307832.

Assays:
Assay in all cases: relative viability (nuclei count vs DMSO), 5 days (fraction); higher = more cells survive
[1] = test system: EBC-1
Summary of the method: (§1)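 Cells from lung cancer lines were seeded into 1536-well plates and, one day later, dosed by pin tool. Treatments were either a single drug or a fixed dose of an anchor drug with five library-drug doses (not always all listed) in √10 steps. After 5 days, nuclei were stained in a one-step fixation (final 0.05% Triton X-100, 1% formaldehyde, 1 ug/ml Hoechst) and counted on 4× images, and relative viability is the treated-to-vehicle nuclei ratio, as the median of duplicate plates.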

[2] = test system: EMC-BAC-2
Summary of the method: as §1

[3] = test system: EPLC-272H
Summary of the method: as §1

[4] = test system: HCC-78
Summary of the method: as §1

[5] = test system: IA-LM
Summary of the method: as §1

[6] = test system: NCI-H1355
Summary of the method: as §1

[7] = test system: NCI-H1666
Summary of the method: as §1

[8] = test system: NCI-H1755
Summary of the method: as §1

[9] = test system: NCI-H1792
Summary of the method: as §1

[10] = test system: NCI-H1793
Summary of the method: as §1

[11] = test system: NCI-H1975
Summary of the method: as §1

[12] = test system: NCI-H2126
Summary of the method: as §1

[13] = test system: NCI-H2170
Summary of the method: as §1

[14] = test system: NCI-H2228
Summary of the method: as §1

[15] = test system: NCI-H520
Summary of the method: as §1

[16] = test system: NCI-H727
Summary of the method: as §1

[17] = test system: NCI-H838
Summary of the method: as §1

[18] = test system: PC-3 [JPC-3]
Summary of the method: as §1

[19] = test system: SK-MES-1
Summary of the method: as §1

[20] = test system: SW 1573
Summary of the method: as §1

Question: With `Cc1cn(-c2cc(NC(=O)c3ccc(C)c(Nc4nccc(-c5cccnc5)n4)c3)cc(C(F)(F)F)c2)cn1` [Nilotinib] + CS(=O)(=O)CCNCc1ccc(-c2ccc3ncnc(Nc4ccc(OCc5cccc(F)c5)c(Cl)c4)c3c2)o1 [Lapatinib] (partner 2 µM) as the compound, how does the relative viability ([1]; first compound 0.001 µM) read?
Answer: 0.208

Question: And the relative viability ([1]; first compound 0.003162 µM)?
Answer: 0.187

Question: And the relative viability ([1]; first compound 0.01 µM)?
Answer: 0.179

Question: And the relative viability ([1]; first compound 0.03162 µM)?
Answer: 0.186

Question: And the relative viability ([1]; first compound 0.1 µM)?
Answer: 0.162

Question: And the relative viability ([2]; first compound 0.001 µM)?
Answer: 0.834

Question: What about the relative viability ([2]; first compound 0.003162 µM) of the same compound?
Answer: 0.952

Question: What about the relative viability ([2]; first compound 0.01 µM) of the same compound?
Answer: 0.924

Question: And the relative viability ([2]; first compound 0.03162 µM)?
Answer: 0.784

Question: And the relative viability ([2]; first compound 0.1 µM)?
Answer: 0.606

Question: And the relative viability ([3]; first compound 0.001 µM)?
Answer: 0.877

Question: What about the relative viability ([3]; first compound 0.003162 µM) of the same compound?
Answer: 1.23

Question: And the relative viability ([3]; first compound 0.01 µM)?
Answer: 0.775

Question: And the relative viability ([3]; first compound 0.03162 µM)?
Answer: 0.976

Question: What about the relative viability ([3]; first compound 0.1 µM) of the same compound?
Answer: 0.402

Question: What about the relative viability ([4]; first compound 0.001 µM) of the same compound?
Answer: 0.889

Question: And the relative viability ([4]; first compound 0.003162 µM)?
Answer: 0.718

Question: And the relative viability ([4]; first compound 0.01 µM)?
Answer: 0.779

Question: And the relative viability ([4]; first compound 0.03162 µM)?
Answer: 0.491

Question: What about the relative viability ([4]; first compound 0.1 µM) of the same compound?
Answer: 0.571

Question: What about the relative viability ([5]; first compound 0.003162 µM) of the same compound?
Answer: 0.936

Question: And the relative viability ([5]; first compound 0.01 µM)?
Answer: 0.755

Question: What about the relative viability ([5]; first compound 0.03162 µM) of the same compound?
Answer: 0.459

Question: What about the relative viability ([5]; first compound 0.1 µM) of the same compound?
Answer: 0.794

Question: And the relative viability ([6]; first compound 0.001 µM)?
Answer: 1.07

Question: And the relative viability ([6]; first compound 0.003162 µM)?
Answer: 1.32

Question: And the relative viability ([6]; first compound 0.01 µM)?
Answer: 1.2

Question: And the relative viability ([6]; first compound 0.03162 µM)?
Answer: 1.12

Question: What about the relative viability ([6]; first compound 0.1 µM) of the same compound?
Answer: 0.401

Question: What about the relative viability ([7]; first compound 0.001 µM) of the same compound?
Answer: 0.772

Question: What about the relative viability ([7]; first compound 0.003162 µM) of the same compound?
Answer: 0.901

Question: What about the relative viability ([7]; first compound 0.01 µM) of the same compound?
Answer: 0.461

Question: And the relative viability ([7]; first compound 0.03162 µM)?
Answer: 0.655

Question: What about the relative viability ([7]; first compound 0.1 µM) of the same compound?
Answer: 0.641

Question: What about the relative viability ([8]; first compound 0.001 µM) of the same compound?
Answer: 1.02

Question: What about the relative viability ([8]; first compound 0.003162 µM) of the same compound?
Answer: 1.35

Question: And the relative viability ([8]; first compound 0.01 µM)?
Answer: 1.43

Question: And the relative viability ([8]; first compound 0.03162 µM)?
Answer: 0.986

Question: And the relative viability ([8]; first compound 0.1 µM)?
Answer: 0.551

Question: What about the relative viability ([9]; first compound 0.001 µM) of the same compound?
Answer: 0.899

Question: And the relative viability ([9]; first compound 0.01 µM)?
Answer: 1.12

Question: What about the relative viability ([9]; first compound 0.1 µM) of the same compound?
Answer: 1.24

Question: And the relative viability ([10]; first compound 0.003162 µM)?
Answer: 0.842

Question: What about the relative viability ([10]; first compound 0.01 µM) of the same compound?
Answer: 1.02

Question: What about the relative viability ([10]; first compound 0.03162 µM) of the same compound?
Answer: 0.859

Question: And the relative viability ([10]; first compound 0.1 µM)?
Answer: 0.21

Question: And the relative viability ([11]; first compound 0.001 µM)?
Answer: 0.859

Question: What about the relative viability ([11]; first compound 0.003162 µM) of the same compound?
Answer: 1.18

Question: What about the relative viability ([11]; first compound 0.01 µM) of the same compound?
Answer: 0.894

Question: And the relative viability ([11]; first compound 0.03162 µM)?
Answer: 0.658

Question: And the relative viability ([11]; first compound 0.1 µM)?
Answer: 0.433

Question: What about the relative viability ([12]; first compound 0.001 µM) of the same compound?
Answer: 0.729

Question: What about the relative viability ([12]; first compound 0.003162 µM) of the same compound?
Answer: 0.813

Question: And the relative viability ([12]; first compound 0.01 µM)?
Answer: 0.664

Question: What about the relative viability ([12]; first compound 0.03162 µM) of the same compound?
Answer: 0.858

Question: And the relative viability ([12]; first compound 0.1 µM)?
Answer: 0.507

Question: What about the relative viability ([13]; first compound 0.001 µM) of the same compound?
Answer: 0.26

Question: And the relative viability ([13]; first compound 0.003162 µM)?
Answer: 0.285

Question: What about the relative viability ([13]; first compound 0.01 µM) of the same compound?
Answer: 0.272

Question: And the relative viability ([13]; first compound 0.03162 µM)?
Answer: 0.28

Question: And the relative viability ([13]; first compound 0.1 µM)?
Answer: 0.268

Question: What about the relative viability ([14]; first compound 0.001 µM) of the same compound?
Answer: 1.03

Question: What about the relative viability ([14]; first compound 0.003162 µM) of the same compound?
Answer: 1.25

Question: And the relative viability ([14]; first compound 0.01 µM)?
Answer: 1.13

Question: What about the relative viability ([14]; first compound 0.03162 µM) of the same compound?
Answer: 1.01

Question: And the relative viability ([14]; first compound 0.1 µM)?
Answer: 0.285

Question: What about the relative viability ([15]; first compound 0.001 µM) of the same compound?
Answer: 0.678

Question: And the relative viability ([15]; first compound 0.01 µM)?
Answer: 0.927

Question: And the relative viability ([15]; first compound 0.03162 µM)?
Answer: 0.707

Question: What about the relative viability ([15]; first compound 0.1 µM) of the same compound?
Answer: 0.383

Question: And the relative viability ([16]; first compound 0.001 µM)?
Answer: 0.858

Question: What about the relative viability ([16]; first compound 0.01 µM) of the same compound?
Answer: 0.985

Question: What about the relative viability ([16]; first compound 0.03162 µM) of the same compound?
Answer: 0.591

Question: And the relative viability ([16]; first compound 0.1 µM)?
Answer: 0.368

Question: And the relative viability ([17]; first compound 0.001 µM)?
Answer: 0.927

Question: And the relative viability ([17]; first compound 0.003162 µM)?
Answer: 1.02

Question: What about the relative viability ([17]; first compound 0.01 µM) of the same compound?
Answer: 0.925

Question: And the relative viability ([17]; first compound 0.03162 µM)?
Answer: 0.817

Question: What about the relative viability ([17]; first compound 0.1 µM) of the same compound?
Answer: 0.609

Question: And the relative viability ([18]; first compound 0.001 µM)?
Answer: 0.44

Question: What about the relative viability ([18]; first compound 0.003162 µM) of the same compound?
Answer: 0.537

Question: And the relative viability ([18]; first compound 0.01 µM)?
Answer: 0.467

Question: What about the relative viability ([18]; first compound 0.03162 µM) of the same compound?
Answer: 0.542

Question: And the relative viability ([18]; first compound 0.1 µM)?
Answer: 0.282

Question: What about the relative viability ([19]; first compound 0.003162 µM) of the same compound?
Answer: 0.663

Question: And the relative viability ([19]; first compound 0.01 µM)?
Answer: 0.665

Question: And the relative viability ([19]; first compound 0.03162 µM)?
Answer: 0.541

Question: What about the relative viability ([19]; first compound 0.1 µM) of the same compound?
Answer: 0.557

Question: What about the relative viability ([20]; first compound 0.003162 µM) of the same compound?
Answer: 1.26

Question: And the relative viability ([20]; first compound 0.01 µM)?
Answer: 1.17

Question: And the relative viability ([20]; first compound 0.03162 µM)?
Answer: 1.1

Question: What about the relative viability ([20]; first compound 0.1 µM) of the same compound?
Answer: 1.27
